Laboratory results taken from US10508090B2, “Sulfonamides as GPR40- and GPR120-agonists” (DOMPÉ FARMACEUTICI S.P.A., priority 2016, dated 2019).

Experiments:
NCI-H716 cells = test: In vitro GLP-1 secretion in differentiated NCI-H716 cells (ELISA); type: cell-based, human; settings: for fold induction at 100 µM: Homo sapiens, NCI-H716, 0.5 h, compound at 100 μM for 30 minutes, differentiated NCI-H716 cells, read-out: GLP-1 RELEASE NCI, fold of increase over DMSO
Procedure: (§1) GPR120/40 Activation: In Vitro GLP-1 Secretion
(§2) 2×10^5 STC-1 cells were seeded in a 12-plate and 24 hours later were treated with selected compounds. 1×10^6 NCI-H716 cells were differentiated in matrigel-coated 12-plate and treated 48 h hours later.
(§3) The day of the experiment, wells were washed once with 1 ml of PBS and then cells were stimulated with 0.5 ml of DMEM (w/o serum, w/o phenol-red) containing 30 μM of selected compounds in STC1 and 100 μM in differentiated NCIH716 for 30 minutes. DMSO has been used as negative control, α-linolenic acid (ALA) (endogenous agonist) as positive control. After stimulations, supernatants were collected, centrifuged at 4000 rpm for 4′ at 4° C., and used for the GLP1 detection by ELISA.

human GPR40 = target: T1, human GPR40 (Homo sapiens, UniProt O14842); test: In vitro Ca2+ mobilization, CHO-k1 cells stably expressing human GPR40; type: cell-based; settings: for AC50: read-out: Ca2+ hGPR40 AC50
T1 construct: expressed in transfected cells; host or cells: CHO-k1
Procedure: (§4) GPR120/40 Activation: In Vitro Ca^2+ Mobilization
(§5) The activation of GPR120/40 by all compounds was determined by measuring changes in intracellular calcium levels using a Ca^2+ sensitive fluorescent dye.
(§6) The experiments were performed using CHO-k1 cells stably expressing the human GPR120 or GPR40. Cells were seeded 10000 cells/well in 384-plates in complete medium and grown overnight at 37° C., 5% CO2. 24 h after seeding, cell culture media was removed and cells were loaded with the fluorescent Ca^2+ indicator (Fluo-8 NW dye in Tyrode's buffer). Dye-loaded cell plates were incubated for 1 h at room temperature under a yellow light sodium lamp.
(§7) Cell were treated with test compounds and controls at 10, 30 and 60 μM. The kinetic response was monitored over a period of 7 minutes (using FLIPRTETRA system). A second injection of 3× concentrated reference agonist at ˜EC50 were then administered to cells and the signal of the emitted fluorescence was measured over a period of additional 3 minutes. The agonist effect is expressed as a percentage of activation, with 100% activation being a result in which the Response Values of the test wells reach a level identical to the one of the Stimulator Controls (alpha linolenic acid reference agonist EC100). 0% activation is a result in which the Response Values of the test wells reach a level identical to the one of the Neutral Controls (assay buffer) in the AGO_KRV (Agonist Kinetic Response Value) response value.

human GPR120 = target: T2, human GPR120 (Homo sapiens, UniProt Q5NUL3); test: In vitro Ca2+ mobilization, CHO-k1 cells stably expressing human GPR120; type: cell-based; settings: for AC50: intracellular calcium, CHO-k1 cells expressing human GPR120, read-out: Ca2+ hGPR120 AC50
T2 construct: expressed in transfected cells; host or cells: CHO-k1
T2 sequence (Q5NUL3 1-361): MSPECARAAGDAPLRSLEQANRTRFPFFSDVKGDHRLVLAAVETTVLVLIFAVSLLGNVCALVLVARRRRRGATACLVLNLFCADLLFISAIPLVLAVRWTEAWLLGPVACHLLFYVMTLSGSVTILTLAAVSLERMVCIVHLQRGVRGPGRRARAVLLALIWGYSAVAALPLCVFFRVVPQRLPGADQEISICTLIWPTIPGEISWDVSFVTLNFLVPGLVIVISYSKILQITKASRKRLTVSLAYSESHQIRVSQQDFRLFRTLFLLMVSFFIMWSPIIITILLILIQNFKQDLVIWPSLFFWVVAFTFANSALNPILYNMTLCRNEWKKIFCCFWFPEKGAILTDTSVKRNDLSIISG
Procedure: as §4, §5, §6, §7

STC-1 cells = test: In vitro GLP-1 secretion in STC-1 cells (ELISA); type: cell-based, murine; settings: for fold induction at 30 µM: Mus musculus, STC-1, 0.5 h, compound at 30 μM for 30 minutes, STC-1 cells, read-out: GLP-1 RELEASE STC-1, fold of increase over DMSO
Procedure: as §1, §2, §3

[1] = intracellular calcium, CHO-k1 cells expressing human GPR40

T1 sequence (O14842 whole entry): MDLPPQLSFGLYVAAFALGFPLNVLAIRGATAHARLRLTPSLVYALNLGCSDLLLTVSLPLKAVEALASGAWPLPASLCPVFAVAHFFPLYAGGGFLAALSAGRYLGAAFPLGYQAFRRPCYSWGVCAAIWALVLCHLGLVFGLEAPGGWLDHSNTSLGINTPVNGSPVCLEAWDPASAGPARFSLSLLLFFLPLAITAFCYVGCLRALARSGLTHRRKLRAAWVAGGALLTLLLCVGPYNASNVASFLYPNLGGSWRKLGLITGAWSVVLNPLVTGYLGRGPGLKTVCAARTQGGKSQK

| Structure (SMILES) | AC50 (human GPR40; [1]) | AC50 (human GPR120) | agonistic activity on GPR40 (AC50 in the calcium mobilization assay), in words (human GPR40) | agonistic activity on GPR120 (AC50 in the calcium mobilization assay), in words (human GPR120) | Ca2+ hGPR40 AC50 (human GPR40; [1]) | fold induction at 100 µM (NCI-H716 cells) | fold induction at 30 µM (STC-1 cells) | GLP-1 secretion in NCI-H716 (human) cells, in words (NCI-H716 cells) | GLP-1 secretion in STC1 (murine) cells, in words (STC-1 cells) |
| --- | --- | --- | --- | --- | --- | --- | --- | --- | --- |
| Cc1cc(O)cc(C)c1NS(=O)(=O)c1cccc(CCCCCCC(=O)O)c1 [Example 31, 7-(3-(N-(4-hydroxy-2,6-dimethylphenyl)sulfamoyl)phenyl)heptanoic acid] | 3.2 µM | 9.3 µM | – | – | – | 3.7 ± 0.56 | 3.55 ± 0.87 | – | – |
| Cc1cc(C(C)C)cc(C)c1NS(=O)(=O)c1cccc(CCCCCCC(=O)O)c1 [Example 3, 7-(3-(N-(4-isopropyl-2,6-dimethylphenyl)sulfamoyl)phenyl)heptanoic acid] | 12.9 µM | 1.98 µM | low microMolar range | low microMolar range | – | 2.5 ± 0.11 | 2.7 ± 0.31 | efficacious | efficacious |
| CC1COC(NS(=O)(=O)c2cccc(CCCCCCC(=O)O)c2)=N1 (stereo not drawn) [Example 28, 7-(3-(N-(4-methyl-4,5-dihydrooxazol-2-yl)sulfamoyl)phenyl)heptanoic acid] | 7.1 µM | 16.1 µM | – | – | – | 3.88 ± 1.96 | 3.64 ± 0.43 | – | – |
| Cc1cc(N(C)C)cc(C)c1NS(=O)(=O)c1cccc(CCCCCCC(=O)O)c1 [Example 5, 7-(3-(N-(4-(dimethylamino)-2,6-dimethylphenyl)sulfamoyl)phenyl)heptanoic acid] | 10.4 µM | 7.9 µM | – | – | – | 1.92 ± 0.14 | 4 ± 0.27 | – | – |
| Cc1cc(OCCCS(C)(=O)=O)cc(C)c1NS(=O)(=O)c1cccc(CCCCCCC(=O)O)c1 [Example 35, 7-(3-(N-(2,6-dimethyl-4-(3(methylsulfonyl)propoxy)phenyl)sulfamoyl)phenyl)heptanoic acid] | 2.3 µM | 6.1 µM | – | – | – | 4.2 ± 0.25 | 4.3 ± 0.61 | – | – |
| O=C(O)CCCCCCc1cccc(S(=O)(=O)NC2=NC3CCCCC3N2)c1 (stereo not drawn) [Example 29, 7-(3-(N-(3a,4,5,6,7,7a-hexahydro-1H-benzo[d]imidazol-2-yl)sulfamoyl)phenyl)heptanoic Acid] | 8.4 µM | 12.4 µM | – | – | – | 2.89 ± 0.81 | 1.12 ± 0.4 | – | – |
| Cc1cc(Oc2ccccc2)cc(C)c1NS(=O)(=O)c1cccc(CCCCCCC(=O)O)c1 [Example 33, 7-(3-(N-(2,6-dimethyl-4-phenoxyphenyl)sulfamoyl)phenyl)heptanoic acid] | – | 18 µM | low microMolar range | low microMolar range | Inactive | 1.58 ± 1.27 | 3 ± 1.82 | efficacious | efficacious |
| Cc1cc(OCc2ccccc2)cc(C)c1NS(=O)(=O)c1cccc(CCCCCCC(=O)O)c1 [Example 34, 7-(3-(N-(4-(benzyloxy)-2,6-dimethylphenyl)sulfamoyl)phenyl)heptanoic acid] | 12.4 µM | 7 µM | – | – | – | 4.58 ± 0.26 | 5.5 ± 0.73 | – | – |

Continued, in another order:

| AC50 (human GPR40; [1]) | AC50 (human GPR120) | agonistic activity on GPR40 (AC50 in the calcium mobilization assay), in words (human GPR40) | agonistic activity on GPR120 (AC50 in the calcium mobilization assay), in words (human GPR120) | Ca2+ hGPR40 AC50 (human GPR40; [1]) | Structure (SMILES) | fold induction at 100 µM (NCI-H716 cells) | fold induction at 30 µM (STC-1 cells) | GLP-1 secretion in NCI-H716 (human) cells, in words (NCI-H716 cells) | GLP-1 secretion in STC1 (murine) cells, in words (STC-1 cells) |
| --- | --- | --- | --- | --- | --- | --- | --- | --- | --- |
| 23.9 µM | 15.2 µM | – | – | – | Cc1nc(C)c(NS(=O)(=O)c2cccc(CCCCCCC(=O)O)c2)s1 [Example 13, 7-(3-(N-(2,4-dimethylthiazol-5-yl)sulfamoyl)phenyl)heptanoic acid] | 1.03 ± 0.17 | 1.13 ± 0.15 | – | – |
| 27.5 µM | 24.1 µM | – | – | – | Cc1nc(NS(=O)(=O)c2cccc(CCCCCCC(=O)O)c2)oc1C [Example 15, 7-(3-(N-(4,5-dimethyloxazol-2-yl)sulfamoyl)phenyl)heptanoic acid] | 1.8 ± 0.91 | 1.19 ± 0.89 | – | – |
| 7.9 µM | 17 µM | – | – | – | Cc1nnc(C)n1NS(=O)(=O)c1cccc(CCCCCCC(=O)O)c1 [Example 21, 7-(3-(N-(3,5-dimethyl-4H-1,2,4-triazol-4-yl)sulfamoyl)phenyl)heptanoic acid] | 2.57 ± 0.91 | 2.23 ± 0.98 | – | – |
| 41.3 µM | 4.36 µM | low microMolar range | low microMolar range | – | Cc1cc(Cl)cc(C)c1NS(=O)(=O)c1cccc(CCCCCCC(=O)O)c1 [Example 4, 7-(3-(N-(4-chloro-2,6-dimethylphenyl)sulfamoyl)phenyl)heptanoic acid] | 1.92 ± 0.57 | 4.1 ± 0.54 | efficacious | efficacious |
| 140 µM | 5.24 µM | low microMolar range | low microMolar range | – | Cc1cc(F)cc(C)c1NS(=O)(=O)c1cccc(CCCCCCC(=O)O)c1 [Example 1, 7-(3-(N-(4-fluoro-2,6-dimethylphenyl)sulfamoyl)phenyl)heptanoic acid] | 1.08 ± 0.1 | 1.87 ± 0.5 | efficacious | efficacious |
| 22.4 µM | 27.8 µM | – | – | – | Cc1nnc(NS(=O)(=O)c2cccc(CCCCCCC(=O)O)c2)s1 [Example 18, 7-(3-(N-(5-methyl-1,3,4-thiadiazol-2-yl)sulfamoyl)phenyl)heptanoic acid] | 1.25 ± 0.8 | 1.98 ± 0.37 | – | – |
| 19.8 µM | 5.72 µM | low microMolar range | low microMolar range | – | Cc1cc(Br)cc(C)c1NS(=O)(=O)c1cccc(CCCCCCC(=O)O)c1 [Example 7, 7-(3-(N-(4-bromo-2,6-dimethylphenyl)sulfamoyl)phenyl)heptanoic acid] | 1.9 ± 0.15 | 1.8 ± 0.24 | efficacious | efficacious |
| 10.7 µM | 10.1 µM | – | – | – | Cn1nnc(NS(=O)(=O)c2cccc(CCCCCCC(=O)O)c2)n1 [Example 27, 7-(3-(N-(2-methyl-2H-tetrazol-5-yl)sulfamoyl)phenyl)heptanoic acid] | 2.89 ± 0.55 | 1.99 ± 0.51 | – | – |
